For one compound, Km results are on record in publication PMC10791668, “Development of chia gum/alginate-polymer support for horseradish peroxidase immobilization and its application in phenolic removal” (Scientific Reports, 2024).

The experiment concerns T1, Horseradish peroxidase (HRP); soluble-HRP.
T1 construct: gene PRXC1A; class III plant peroxidase
Nature of the experiment: peroxidase assay, absorbance at […] nm, Lineweaver-Burk plot. As to conditions: free soluble enzyme; co-substrate H2O2 (8 mM in the standard assay); 20 mM sodium acetate pH 5.5; temperature not stated. Format: biochemical, Armoracia rusticana.

`COc1ccccc1O` [guaiacol]: the Michaelis-Menten constant (Km) was found to be 35.7 mM.

The Km is the substrate concentration at which the rate is half of its maximum.
